Measurements published in PMC11290297 (Addiction neuroscience, 2024).

Assays:
[1] = target: T1, α2A-AR (Homo sapiens, UniProt P08913); experiment: TRUPATH BRET2 G-protein activation; format: cell-based; conditions: agonist; Gi1, GoA, Gz
T1 sequence (P08913 1-465): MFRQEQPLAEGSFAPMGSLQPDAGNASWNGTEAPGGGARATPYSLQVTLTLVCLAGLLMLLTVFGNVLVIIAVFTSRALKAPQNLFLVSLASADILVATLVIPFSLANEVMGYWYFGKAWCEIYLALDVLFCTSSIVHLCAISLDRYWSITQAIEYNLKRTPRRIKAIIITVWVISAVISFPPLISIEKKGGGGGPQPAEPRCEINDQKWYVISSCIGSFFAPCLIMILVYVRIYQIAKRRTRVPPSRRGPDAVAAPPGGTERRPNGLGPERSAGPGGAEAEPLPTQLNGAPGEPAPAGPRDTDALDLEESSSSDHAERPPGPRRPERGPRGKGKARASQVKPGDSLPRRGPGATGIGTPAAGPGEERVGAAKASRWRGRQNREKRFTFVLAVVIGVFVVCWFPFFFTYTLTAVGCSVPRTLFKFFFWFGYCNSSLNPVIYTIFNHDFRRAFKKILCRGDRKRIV

[2] = target: T2, kappa opioid receptor (κOR) (Homo sapiens, UniProt P41145); experiment: Gi-GloSensor cAMP assay; format: cell-based
[3] = target: T2, kappa opioid receptor (κOR); experiment: Gi-GloSensor cAMP assay; format: cell-based; remark: listed apart in the source
[4] = target: T1, α2A-AR; experiment: Gi-GloSensor cAMP assay; format: cell-based; conditions: read-out: potency (pEC50) (converted); full agonist; printed pEC50 of 7.47
[5] = target: T1, α2A-AR; experiment: radioligand competition binding; conditions: panel labelled α2-AR
[6] = target: T2, kappa opioid receptor (κOR); experiment: radioligand competition binding, 3H-U69593

Compound	pEC50 [1]	pEC50 ([2]; agonist)	pEC50 ([2]; partial agonist)	EC50 [3]	EC50 [4]	pKi [5]	Ki [6]
Cc1ccc(O)c(C)c1NC1=NCCCS1 [3-hydroxy-xylazine]	Xylazine, its metabolites, as well as other relevant adrenergic agonists exhibited agonist activity at α2A-AR	3-hydroxy-xylazine was as efficacious, though less potent, as xylazine and salvinorin A	–	–	–	–	–
Cc1cc(O)cc(C)c1NC1=NCCCS1 [4-hydroxy-xylazine]	Xylazine, its metabolites, as well as other relevant adrenergic agonists exhibited agonist activity at α2A-AR	–	4-hydroxy-xylazine was less efficacious at κOR overall	–	–	–	–
Cc1cccc(C)c1NC1=NCCCS1 [xylazine]	–	–	–	1400 nM	34 nM	Radioligand competitive binding assay confirms xylazine activity at κOR (A) and α2-AR (B)	470 nM
